ChEMBL document CHEMBL1146913, “Symmetrical and unsymmetrical analogues of isoxyl; active agents against Mycobacterium tuberculosis” (2006)
In brackets after ≈: the same amount, converted by molar mass. Activity calls are given as the source filed them. The calls are words filed in the database; no cut-off is given here.

Key:
[1] = system: Mycobacterium tuberculosis; experiment: Antibacterial activity against Mycobacterium bovis BCG; format: functional; conditions: variant bovis BCG
[2] = system: Mycobacterium tuberculosis; experiment: Inhibition of oleate production in Mycobacterium bovis BCG; format: functional, variant bovis BCG; conditions: for inhibition: variant bovis BCG

For `CCCCOc1ccc(NC(=S)Nc2ccc(OCCC(C)C)cc2)cc1`, the MIC99 [1] was 0.4 µg/mL (≈ 1.03 µM) and the Inhibition [2] was 79.96%.
For `CCCCOc1ccc(NC(=S)Nc2ccc(OCC(C)C)cc2)cc1`, the MIC99 [1] was 0.6 µg/mL (≈ 1.61 µM) and the Inhibition [2] was 63.99%.
For `CCCCOc1ccc(NC(=S)Nc2ccc(SCCC)cc2)cc1`, the MIC99 [1] was 0.06 µg/mL (≈ 0.16 µM) and the inhibition [2] was “inactive”.
In the case of `CCCSc1ccc(NC(=S)Nc2ccc(OCCC(C)C)cc2)cc1`, the MIC99 [1] is reported as 0.5 µg/mL (≈ 1.29 µM) and the Inhibition [2] is reported as 53.32%.
`CCCSc1ccc(NC(=S)Nc2ccc(Cc3ccccc3)cc2)cc1` was tested, and the MIC99 [1] was 1.75 µg/mL (≈ 4.46 µM) and the inhibition [2] was “inactive”.
`CCCOc1ccc(NC(=S)Nc2ccc(OCCC)cc2)cc1` gave an MIC99 [1] of 0.5 µg/mL (≈ 1.45 µM) and an Inhibition [2] of 90.76%.
With `CCCCOc1ccc(NC(=S)Nc2ccc(CCCC)cc2)cc1` the MIC99 [1] was 0.7 µg/mL (≈ 1.96 µM) and the inhibition [2] was “inactive”.
With `CC(C)COc1ccc(NC(=S)Nc2ccc(OCC(C)C)cc2)cc1` the MIC99 [1] was 0.9 µg/mL (≈ 2.42 µM) and the Inhibition [2] was 51.62%.
For `CCCCc1ccc(NC(=S)Nc2ccc(OCCC(C)C)cc2)cc1`, the MIC99 [1] was 0.6 µg/mL (≈ 1.62 µM) and the Inhibition [2] was 14.82%.
Work on `CCCCOc1ccc(NC(=S)Nc2ccc(Cc3ccccc3)cc2)cc1` yielded an MIC99 [1] of 1.5 µg/mL (≈ 3.84 µM) and an Inhibition [2] of 66.15%.
`CCCCOc1ccc(NC(=S)Nc2ccc(OCCCC)cc2)cc1` showed an MIC99 [1] of 0.5 µg/mL (≈ 1.34 µM) and an Inhibition [2] of 94.25%.
For `CCCCOc1ccc(NC(=S)Nc2ccc(SCC(C)C)cc2)cc1`, the MIC99 [1] was 0.7 µg/mL (≈ 1.8 µM) and the Inhibition [2] was 17.75%.
For `CC(C)CSc1ccc(NC(=S)Nc2ccc(SCC(C)C)cc2)cc1`, the MIC99 [1] was 0.6 µg/mL (≈ 1.48 µM) and the inhibition [2] was “inactive”.
`CC(C)CCOc1ccc(NC(=S)Nc2ccc(Cc3ccccc3)cc2)cc1` showed an MIC99 [1] of 1.1 µg/mL (≈ 2.72 µM) and an Inhibition [2] of 48.83%.
`CCCCc1ccc(NC(=S)Nc2ccc(OCCC)cc2)cc1` was tested, and the MIC99 [1] was 0.06 µg/mL (≈ 0.175 µM) and the inhibition [2] was “inactive”.
`CC(C)CCOc1ccc(NC(=S)Nc2ccc(OCC(C)C)cc2)cc1` gave an MIC99 [1] of 0.9 µg/mL (≈ 2.33 µM) and an Inhibition [2] of 19.24%.
Molecule `CC(C)CCOc1ccc(NC(=S)Nc2ccc(OCCC(C)C)cc2)cc1` [TIOCARLIDE] has an MIC99 [1] of 1.1 µg/mL (≈ 2.75 µM) and an Inhibition [2] of 61.02%.
For `CCCCc1ccc(NC(=S)Nc2ccc(CCCC)cc2)cc1`, the MIC99 [1] was 0.075 µg/mL (≈ 0.22 µM) and the inhibition [2] was “inactive”.
